What was measured:
human platelets = assay: Measuring [Na^+]i with SBFI/AM fluorescence in platelets; assay type: cell-based; conditions: for [Na^+]i elevated from basal levels up to: highest concentration investigated: 50 µM hyperforin, 10 µM monensin, platelets, SBFI fluorescence
Protocol: Solutions: The Na^+-HEPES buffer consisted 10 mM HEPES, 1 mM MgSO4, 5 mM KH2PO4, 5 mM KCI and 5 mM Glucose (4). The pH of this buffer was adjusted to 6.5 with NH3 (for storage of platelets) and to 7.4 for the measurement of fluorescence. The K^+ solution was identical except for complete replacement of sodium by potassium.
Preparation of platelets and loading with SBFI/AM: Venous blood (10 ml) was anticoagulated by mixing it with 1.0 ml citrate solution in a S-Monovette. […] Platelet pellets were obtained from PRP by centifugation at 480 x g for 30 min at room temperature. The pellet was resuspended into Sodium-HEPES buffer, pH 6.5 at a final concentration of 3-4 x 10^8 cells/ml. […] Appropriate amounts of this solution were added to the platelets to yield a final concentration of SBFI/AM of 10 µM and platelets were incubated with the dye for 60 min at 37°C in a shaking water bath. Thereafter, platelets were again centrifuged at 480 x g for 30 min at RT. The supernatant was discarded and the platelets were taken up into sodium-HEPES buffer, pH 6.5 at a concentration of 3-4 x 10^9 cells/ml. The platelet suspension was then stored at RT until used for the fluorescence measurements.
Measurement of SBFI/AM Fluorescence: Aliquots of platelet suspension (4 µl) were added to 950 µl of the appropriate buffer. Fluorescence was measured in quartz cuvettes using a SLM-Aminco luminescence spectrometer before and after addition of the tested drugs. […] All measurements were performed without stirring at room temperature.

serotonin transporter [1] = target: T1, serotonin transporter (Mus musculus, UniProt Q60857); assay: ^3H-paroxetine binding assay (mouse frontal cortex membranes)
T1 construct: from tissue; host or cells: frontal cortex of female NMRI mice (synaptosomes or membranes)
Protocol: Female NMRI mice were sacrified by decapitation. […] The homogenate was centrifuged for 10 min at 35000 x g at 4°C. The resulting pellet was resuspended in 40 volumes of buffer and recentrifuged. The pellet was resuspended in TRIS buffer at a protein concentration of 70 µg/ml. Aliquots of membrane suspension were incubated with ^3H-paroxetine (0.2 nM) at room temperature for 60 minutes. Incubation was terminated by rapid filtration through Whatman GF/B glass fiber filters with a Brandel Cell Harvester. […] The filters were washed 7 times with ice cold buffer, dried and the radioactivity was measured by liquid scintillation spectrometry.

serotonin transporter [2] = target: T1, serotonin transporter; assay: Kinetic analyses of ^3H-serotonin uptake into mouse cortex synaptosomes; assay type: cell-based; conditions: hyperforin 2 µM, citalopram 1 nM, monensin concentration not given in the text
[3] = target: T2, human serotonin transporter (Homo sapiens, UniProt P31645); assay: ^3H-serotonin uptake in platelets; assay type: cell-based
T2 construct: Blood from normal unmedicated volunteers was anticoagulated; endogenous in cells; host or cells: human platelets from blood of unmedicated volunteers

GABA = assay: Synaptosomal uptake of GABA; assay type: cell-based; conditions: unpublished observations
serotonin transporter [4] = target: T1, serotonin transporter; assay: Synaptosomal uptake of ^3H-serotonin (mouse cortex synaptosomes); assay type: cell-based
Protocol: Synaptosomal preparations from frontal cortex of female NMRI mice were used for serotonin uptake. The tissue was homogenized in ice cold sucrose solution (0.32 M) and diluted with 10 ml of the homogenizing medium. The nuclear fraction was eliminated by centrifugation at 750 x g for 10 min (Beckman Centrifuge, Model J2-21). […] The probes were cooled, immediately filtered through Whatman GF/B glass fiber filters and washed three times with ice cold buffer solution with a Brandel cell harvester. Filters were placed in plastic scintillation vials containing 4 ml Lumasafe scintillation cocktail (Packard). Radioactivity was measured after 12 hours. Nonspecific uptake was determined in parallel probes maintained throughout on ice or containing unlabelled serotonin (1mM serotonin).

norepinephrine = assay: Synaptosomal uptake of norepinephrine; assay type: cell-based; conditions: unpublished observations
L-glutamate = assay: Synaptosomal uptake of L-glutamate; assay type: cell-based; conditions: unpublished observations
dopamine = assay: Synaptosomal uptake of dopamine; assay type: cell-based; conditions: unpublished observations

T1 sequence (Q60857 whole entry): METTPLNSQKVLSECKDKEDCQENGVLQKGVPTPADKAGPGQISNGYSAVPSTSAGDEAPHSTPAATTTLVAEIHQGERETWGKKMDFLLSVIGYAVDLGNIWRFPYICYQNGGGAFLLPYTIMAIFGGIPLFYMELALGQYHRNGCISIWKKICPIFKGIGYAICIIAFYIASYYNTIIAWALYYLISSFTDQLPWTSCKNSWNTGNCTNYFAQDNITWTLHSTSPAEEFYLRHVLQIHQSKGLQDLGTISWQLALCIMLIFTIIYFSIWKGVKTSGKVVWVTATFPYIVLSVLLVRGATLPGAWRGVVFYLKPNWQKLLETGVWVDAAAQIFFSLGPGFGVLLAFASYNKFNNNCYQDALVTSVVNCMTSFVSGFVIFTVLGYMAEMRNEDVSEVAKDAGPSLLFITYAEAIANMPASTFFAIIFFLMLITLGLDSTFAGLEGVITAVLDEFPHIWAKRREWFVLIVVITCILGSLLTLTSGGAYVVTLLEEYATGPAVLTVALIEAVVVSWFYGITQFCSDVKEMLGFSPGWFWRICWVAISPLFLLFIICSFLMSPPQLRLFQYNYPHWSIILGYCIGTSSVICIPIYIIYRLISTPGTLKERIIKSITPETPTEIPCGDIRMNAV
T2 sequence (P31645 whole entry): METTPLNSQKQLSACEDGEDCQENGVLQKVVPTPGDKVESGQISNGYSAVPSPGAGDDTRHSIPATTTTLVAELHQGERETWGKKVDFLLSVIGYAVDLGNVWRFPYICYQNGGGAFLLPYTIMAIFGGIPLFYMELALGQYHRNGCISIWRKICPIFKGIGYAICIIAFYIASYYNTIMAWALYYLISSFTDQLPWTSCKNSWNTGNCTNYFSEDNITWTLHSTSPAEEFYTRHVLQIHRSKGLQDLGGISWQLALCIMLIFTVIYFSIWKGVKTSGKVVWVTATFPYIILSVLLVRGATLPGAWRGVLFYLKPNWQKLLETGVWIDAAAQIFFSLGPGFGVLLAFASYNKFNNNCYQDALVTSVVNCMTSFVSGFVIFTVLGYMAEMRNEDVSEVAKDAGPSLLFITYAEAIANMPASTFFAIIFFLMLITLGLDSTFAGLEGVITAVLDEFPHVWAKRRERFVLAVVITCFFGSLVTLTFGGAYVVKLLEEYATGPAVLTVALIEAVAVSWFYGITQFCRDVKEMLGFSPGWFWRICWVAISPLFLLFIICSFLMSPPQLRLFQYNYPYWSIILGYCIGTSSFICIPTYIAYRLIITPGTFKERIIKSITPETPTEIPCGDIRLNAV

SMILES | Maximal elevation of [Na^+]i (human platelets; 50 µM hyperforin, human platelets) | [Na^+]i elevated from basal levels up to (human platelets) | incubation time to maximal effect on [Na^+]i (human platelets; hyperforin, human platelets) | IC50 (serotonin transporter [1]) | Vmax (serotonin transporter [2]) | IC50 ([3]; inhibition of ^3H-serotonin uptake into human platelets, Table 3) | inhibition at 0.5 µM ([3]; monensin 500 nM, human platelets) | IC50 synaptosomal uptake of GABA (GABA) | IC50 (serotonin transporter [4]) | IC50 synaptosomal uptake of norepinephrine (norepinephrine) | incubation time to equilibration of [Na^+]i elevation (human platelets; monensin, human platelets) | IC50 synaptosomal uptake of L-glutamate (L-glutamate) | IC50 synaptosomal uptake of dopamine (dopamine)
CC(C)=CCCC1(C)C(CC=C(C)C)CC2(CC=C(C)C)C(=O)C(CC=C(C)C)=C(O)C1(C(=O)C(C)C)C2=O (centres unmarked) [Hyperforin] | about 70 mM | 69,0 ± 16,1 mM | ≤ 15 min | – | – | – | – | – | – | – | – | – | –
CC[C@@]1([C@@H]2O[C@@H]([C@H]3O[C@@](O)(CO)[C@H](C)C[C@@H]3C)C[C@@H]2C)CC[C@H]([C@]2(C)CC[C@]3(C[C@H](O)[C@@H](C)[C@@H]([C@@H](C)[C@@H](OC)[C@H](C)C(=O)O)O3)O2)O1 [Monensin] | – | 140,0 ± 9,1 mM | – | > 1 µM | 0,065 ± 0,009 pM/min/mg protein | 0.159 µM | ~70% | nanomolar range | 0.0478 µM | nanomolar range | 15 min | nanomolar range | nanomolar range

Source: EP1034782A1, “Treatment of depression by using compounds which elevate the intracellular sodium concentration” (Singer, Andrea, priority 1999, dated 2000)
